Data from patent publication US20230187019A1, “METHOD FOR DETERMINING A DRUG COMBINATION VIA A BLOCKING MODEL OF A MULTI-SITE-TARGETED PROTEIN AND APPLICATIONS THEREOF” (National Tsing Hua University, priority 2021, published 2023).
“And” between values parts separate entries of the source, which are not always exact repeats. Equal values may be shown once. Read-outs that look alike come from different tables or passages of the source.

Experiments:
MDA-MB-468 = assay: Cell viability assay by WST-1 on MDA-MB-468; assay type: cell-based, human; conditions: 10 μM, two days, breast MDA-MB-468
Protocol: Three tumor cells were tested, i.e., HCT116 (colorectal cancer), AsPC-1 (pancreatic cancer) and MDA-MB-468 cell lines (breast cancer). Human colorectal carcinoma cell line HCT116 (catalog number: BCRC 60349, Bioresource Collection and Research Center (BCRC), Hsinchu City, Taiwan) was maintained in the culture medium: McCoy's 5a medium (catalog number: 16-600-082, Gibco, Waltham, Mass.) with 1.5 mM L-glutamine (Gibco) and 10% fetal bovine serum (FBS, Gibco). Human pancreatic adenocarcinoma cell line AsPC-1 (catalog number: BCRC 60494, BCRC) was maintained in the culture medium: RPMI 1640 medium (catalog number: 11875168, Gibco) with 2 mM L-glutamine, 4.5 g/L glucose (Gibco), 10 mM HEPES (Gibco), 1 mM sodium pyruvate (Gibco) and 10% fetal bovine serum. […]
For cell viability assay, tumor cells (1×10^5/mL) were suspended in the medium without testing drugs and then inoculated in 96-well plates (100 μL per well) for attachment first. […] Cell proliferation was quantified by using a Premix WST-1 Cell Proliferation Assay System (Takara, Japan). According to the manufacturer's protocol, cell proliferation was determined by measuring the optical density (OD) after the reaction for 3 hours by recording the absorbance at 450 nm using a plate reader (Multiskan Go, Thermo Fisher Scientific).

ATG4B = ATG4B (Homo sapiens, UniProt Q9Y4P1); assay: In vitro cleavage assay of ATG4B catalytic activity (western blot of tagged LC3B); assay type: biochemical
Protocol: The reagents were incubated at 37° C. for 30 minutes and then subjected to western blotting. The intensity of the band in the gel was calculated by using Image Studio Lite from LI-COR Biosciences or ImageJ.
The full-length LC3B fusion protein was used as the negative control and as the positive control when also incubated with ATG4B (FIG. 22A). […] A peptide that can inhibit ATG4B activity will weaken the fluorescence signal produced by the cleaved PLA2.

shCtrl/HCT116 = assay: Cell viability assay on shCtrl/HCT116 (control strain); assay type: cell-based, human; conditions: HCT116 (FIG. 13A, shCtrl/HCT116)
shATG4B/HCT116 = assay: Cell viability assay on shATG4B/HCT116 (ATG4B silencing strain); assay type: cell-based, human
LC3B-II = assay: Western blotting of LC3B-II in AK4.4 and AsPC-1 cells; assay type: cell-based; conditions: AK4.4 and AsPC-1, western blotting
Protocol: Cells were seeded in a 12-well plate (10^5 cells/well) and cultured in serum-free medium (SFM) with different concentrations of drugs for six hours. The plate was then washed with phosphate-buffered saline (PBS), and cells were lysed with 100 μL radioimmunoprecipitation assay buffer (RIPA buffer) for each well. The cell extracts were mixed with 4×dye (900 μL of 4×Laemmli sample buffer+100 μL of 2-mercaptoethanol) at 95° C. for ten minutes and separated by sodium dodecyl sulfate-polyacrylamide gel electrophoresis (SDS-PAGE). The fractions were then transferred to a polyvinylidene fluoride (PVDF) membrane and immersed in 5% nonfat milk at room temperature for one hour. Afterward, the transfer membrane was incubated with protein-specific primary antibodies at 4° C. overnight, washed by PBST (0.1% Tween 20 in PBS), and then incubated with horseradish peroxidase (HRP)-conjugated secondary antibodies at room temperature for one hour. The blots washed by PBST were then detected by enhanced chemiluminescence (ECL) for the quantification of proteins.

[1] = tested on: AK4.4 pancreatic ductal adenocarcinoma (PDAC) xenograft
AK4.4 = assay: Cell viability assay (MTT) on AK4.4; conditions: for IC50: Mus musculus
Protocol: (§1) The cell viability was measured using the MTT assay or CellTiter-Glo Luminescent Cell Viability Assay. For MTT assay, mouse AK4.4 (1,000 cells/well) and human AsPC-1 (1,500 cells/well) cells were seeded in 96-well plates and cultured in serum-free medium (SFM) containing indicated concentrations of drugs for 48 hours. To measure the cell viability, 15 μL MTT (3-(4,5-dimethylthiazol-2-yl)-2,5-diphenyltetrazolium bromide, 5 mg/mL in PBS) was added in each well and kept at 37° C. for three hours. The precipitated crystals were then dissolved in 50 μL DMSO, and the absorbance at 570 nm was measured by Multiskan GO Microplate Spectrophotometer (Thermo Scientific, USA) to estimate the cell survival rate. To quantify the drug combination effect, the combination index was calculated when the cell viability was reduced by 50% using the following Equation (1):

AsPC-1 = assay: Cell viability assay (MTT) on AsPC-1
Protocol: as §1

3CL^pro = biological target: T1, 3CL^pro (Severe acute respiratory syndrome coronavirus 2, UniProt P0DTD1); assay: FRET-based 3CL^pro enzyme activity assay; assay type: biochemical; conditions: single use, 3 to 90 μM
T1 construct: A 3CL^pro (Cat. #78042-1) assay kit (BPS Bioscience, CA, USA); purchased BPS Bioscience 78042-1
Protocol: The intensity of this fluorescence is proportional to the protease activity.
Inhibition percentage is calculated by “1−(Itest−Isubstrate)/(Ipositive−Isubstrate),” where I represents the value of inhibition ability.
The FRET (fluorescence resonance energy transfer)-based assay was designed for 3CL^pro activity assay and explained in FIG. 10. The 3CL^pro enzyme assay was developed in a 96-well black microplate with a total volume of 50 μL. 30 μL of 0.5 ng/μL enzyme in a reaction buffer was added into each well, followed by the addition of 10 μL substrate solution to a final concentration of 40 μM.

[2] = Vb concentration for 50% reduction of viability in combination with 0.50 μM Mx

Chain of ATG4B (Q9Y4P1 whole entry): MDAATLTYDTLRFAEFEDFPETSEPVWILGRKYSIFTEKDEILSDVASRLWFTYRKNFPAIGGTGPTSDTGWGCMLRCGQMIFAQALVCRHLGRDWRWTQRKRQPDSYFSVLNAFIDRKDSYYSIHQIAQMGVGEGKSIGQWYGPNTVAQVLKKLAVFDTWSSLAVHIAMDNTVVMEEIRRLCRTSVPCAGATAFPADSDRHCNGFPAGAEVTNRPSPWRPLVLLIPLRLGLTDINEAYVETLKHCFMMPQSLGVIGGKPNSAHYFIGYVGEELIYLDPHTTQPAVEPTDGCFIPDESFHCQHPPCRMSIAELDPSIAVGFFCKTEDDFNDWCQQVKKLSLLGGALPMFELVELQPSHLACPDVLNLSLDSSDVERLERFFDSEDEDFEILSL

Question: For `CC1=C(/C=C/C(C)=C/C=C/C(C)=C/C(=O)Nc2ccc(O)cc2)C(C)(C)CCC1` [Fenretinide], which “suppression of tumor cell growth” value (MDA-MB-468) is on record?
Answer: Its value is “seems to be a better breast cancer inhibitor”.

Question: Which results are given for `CCC1=C[C@@H]2CN(C1)Cc1c([nH]c3ccccc13)[C@@](C(=O)OC)(c1cc3c(cc1OC)N(C)[C@H]1[C@@](O)(C(=O)OC)[C@H](OC(C)=O)[C@]4(CC)C=CCN5CC[C@]31[C@@H]54)C2` [Vinorelbine]?
Answer: reduction of the ATG4B activity on LC3B catalysis (ATG4B; 10 μM vinorelbine, FIG. 4B): 42%; inhibition at 10 µM (ATG4B; read-out: inhibition of ATG4B catalysis): 58%; reduced cell viability (shCtrl/HCT116; 4 μM): 55%; reduced cell viability (shCtrl/HCT116; 10 μM): 63%; reduced cell viability (shCtrl/HCT116; 20 μM): 68%; reduced cell viability (shATG4B/HCT116): 37% and 43% and 54%; abundance of LC3B-II in cells (LC3B-II): accumulation of LC3B-II; tumor size compared to the control group ([1]; 20 mg/kg, day 16): 70%; tumor size measured on day 16 versus control group ([1]; dose of 10 mg/kg, days 3, 5, 7, 10, 12, 14): less than half of the tumor size in the control group; reduced cell viability (AK4.4; AK4.4, 5 μM): 62%; reduced cell viability (AK4.4; AK4.4, 10 μM): 51%; reduced cell viability (AK4.4; AK4.4, 20 μM): 24%; IC50 (AK4.4; read-out: IC50, Vb, vinorelbine alone, AK4.4 (Table 8)): 10.4 µM; IC50 (AK4.4; read-out: IC50, Vb, vinorelbine alone, AK4.4 (Table 14)): 7.19 µM; CVb, 50 (AK4.4; [2]): 3.91 µM; reduced cell viability (AsPC-1; AsPC-1, 5 μM): 68%; reduced cell viability (AsPC-1; AsPC-1, 10 μM): 61%; reduced cell viability (AsPC-1; AsPC-1, 20 μM): 46%; IC50 (AsPC-1; Homo sapiens, ASPC1, read-out: IC50, Vb, vinorelbine alone, AsPC-1 (Table 9)): 17.4 µM; IC50 (AsPC-1; Homo sapiens, ASPC1, read-out: IC50, Vb, vinorelbine alone, AsPC-1 (Table 15)): 33.1 µM; viability at 5 µM (AsPC-1; Homo sapiens, ASPC1, read-out: cell viability, AsPC-1, 5 μM vinorelbine alone): 68%; viability at 10 µM (AsPC-1; Homo sapiens, ASPC1, read-out: cell viability, AsPC-1, 10 μM vinorelbine alone): 61%; viability at 20 µM (AsPC-1; Homo sapiens, ASPC1, read-out: cell viability, AsPC-1, 20 μM vinorelbine alone): 46%; CVb, 50 (AsPC-1; [2]): 18.94 µM; CVb, 50 (AsPC-1; Vb concentration for 50% reduction of viability in combination with 1.00 μM Mx): 9.05 µM

Question: How did the “inhibition of 3CL^pro” value (3CL^pro) turn out when `CC(C)C[C@@H](N)C(=O)N[C@H]1C(=O)N[C@@H](CC(N)=O)C(=O)N[C@H]2C(=O)N[C@H]3C(=O)N[C@H](C(=O)N[C@H](C(=O)O)c4cc(O)cc(O)c4-c4cc3ccc4O)[C@H](O)c3ccc(c(Cl)c3)Oc3cc2cc(c3O[C@@H]2O[C@H](CO)[C@@H](O)[C@H](O)[C@H]2O[C@H]2C[C@](C)(N)[C@H](O)[C@H](C)O2)Oc2ccc(cc2Cl)[C@H]1O` [norvancomycin] was run?
Answer: The value was 20 to 30%.
